In one experiment the target is Human Thrombin (Homo sapiens, UniProt P00734). The experiment in a line: Inhibition of amidase activity of thrombin (Kass). To be noted: apparent association constant, mean over a range of concentrations. The class given is biochemical. The procedure:
(§1) The assay is carried out by mixing 50 μL buffer (0.03M Tris, 0.15M NaCl, pH 7.4) with 25 μL of bovine thrombin or human thrombin solution (0.21 mg/mL of thrombostat bovine thrombin, Parke-Davis, or purified human thrombin, Enzyme Research Laboratories, South Bend, Ind., at about 8 NIH units/mL, in the same buffer) and 25 μL of test compound in a solvent (in 50% aqueous methanol, v:v). The 150 μL of an aqueous solution of the chromogenic substrate (at 0.25 mg/mL) are added and the rates of hydrolysis of the substrate are measured by monitoring the reactions at 405 nm for the release of p-nitroaniline. Standard curves are constructed by plotting free thrombin concentration against hydrolysis rate. The hydrolysis rates observed with test compounds are then converted to "free thrombin" values in the respective assays by use of the standard curves. The bound thrombin (bound to test compound) is calculated by subtracting the amount of free thrombin observed in each assay from the known initial amount of thrombin used in the assay. The amount of free inhibitor in each assay is calculated by subtracting the number of moles of bound thrombin from the number of moles of added inhibitor (test compound).
The Kass value is the hypothetical equilibrium constant for the reaction between thrombin and the test compound (I). [drawing 54]
(§2) Kass is calculated for a range of concentrations of test compounds and the mean value is reported in units of liter per mole.

The target of another experiment is T1, factor Xa (Homo sapiens, UniProt P00742).
T1 construct: Human factors X, Xa, IXa, XIa, and XIIa are purchased; purchased Enzyme Research Laboratories, South Bend, Ind
T1 sequence (P00742 235-488 limits assumed): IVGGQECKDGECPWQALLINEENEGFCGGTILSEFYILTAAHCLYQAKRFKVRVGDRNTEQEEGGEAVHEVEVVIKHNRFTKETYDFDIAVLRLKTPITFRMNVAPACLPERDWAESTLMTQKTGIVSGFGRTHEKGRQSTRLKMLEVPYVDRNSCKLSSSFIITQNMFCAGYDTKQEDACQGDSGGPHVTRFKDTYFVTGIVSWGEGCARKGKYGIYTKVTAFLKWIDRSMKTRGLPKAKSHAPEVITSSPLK
T1 sequence (P00742 41-179 partner limits assumed): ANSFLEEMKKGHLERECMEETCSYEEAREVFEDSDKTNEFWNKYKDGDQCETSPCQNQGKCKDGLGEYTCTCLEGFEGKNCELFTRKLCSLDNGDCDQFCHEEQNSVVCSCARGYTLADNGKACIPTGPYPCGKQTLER
The experiment in a line: Serine protease selectivity, chromogenic substrate (Kass), factor Xa. The class given is biochemical. To be noted: substrate N-Benzoyl-Ile-Glu-Gly-Arg-p-nitroanilide. The procedure: as §1, §2
(§3) By substantially following the procedures described above for human thrombin, and using other human blood coagulation system serine proteases and proteases of the fibrinolytic system with the appropriate chromogenic substrates, identified below, selectivity of the compounds of the present invention with respect to the coagulation factor serine proteases and with respect to the fibrinolytic system serine proteases are evaluated as well as their substantial lack of interference with serine proteases of the fibrinolytic system. Thrombin inhibitors preferably should spare fibrinolysis induced by urokinase, tissue plasminogen activator (t-PA) and streptokinase. This would be important to the therapeutic use of such agents as an adjunct to streptokinase, t-PA or urokinase thrombolytic therapy and to the use of such agents as an endogenous fibrinolysis-sparing (with respect to t-PA and urokinase) antithrombotic agent. In addition to the lack of interference with the amidase activity of the fibrinolytic proteases, such fibrinolytic system sparing can be studied by the use of human plasma clots and their lysis by the respective fibrinolytic plasminogen activators.
(§4) Human factors X, Xa, IXa, XIa, and XIIa are purchased from Enzyme Research Laboratories, South Bend, Ind.; human urokinase from Leo Pharmaceuticals, Denmark; and recombinant activated Protein C (aPC) is prepared at Eli Lilly and Co. substantially according to U.S. Pat. No. 4,981,952. Chromogenic substrates: N-Benzoyl-Ile-Glu-Gly-Arg-p-nitroanilide (for factor Xa); N-Cbz-D-Arg-Gly-Arg-p-nitroanilide (for factor IXa assay as the factor Xa substrate); Pyroglutamyl-Pro-Arg-p-nitroanilide (for Factor XIa and for aPC); H-D-Pro-Phe-Arg-p-nitroanilide (for factor XIIa); and Pyroglutamyl-Gly-Arg-p-nitroanilide (for urokinase); are purchased from KabiVitrum, Stockholm, Sweden, or from Midwest Biotech, Fishers, Ind. Bovine trypsin is purchased from Worthington Biochemicals, Freehold, N.J., and human plasma kallikrein from Kabi Vitrum, Stockholm, Sweden. Chromogenic substrate H-D-Pro-Phe-Arg-p-nitroanilide for plasma kallikrein is purchased from Kabi Vitrum, Stockholm, Sweden. N-Benzoyl-Phe-Val-Arg-p-nitroanilide, the substrate for human thrombin and for trypsin, is synthesized according to procedures described above for the compounds of the present invention, using known methods of peptide coupling from commercially available reactants or purchased from Midwest Biotech, Fishers, Ind.

The target of a further experiment is T2, Trypsin (Bos taurus, UniProt P00760).
T2 construct: Bovine trypsin is purchased; purchased Worthington Biochemicals, Freehold, N.J
T2 sequence (P00760 24-246): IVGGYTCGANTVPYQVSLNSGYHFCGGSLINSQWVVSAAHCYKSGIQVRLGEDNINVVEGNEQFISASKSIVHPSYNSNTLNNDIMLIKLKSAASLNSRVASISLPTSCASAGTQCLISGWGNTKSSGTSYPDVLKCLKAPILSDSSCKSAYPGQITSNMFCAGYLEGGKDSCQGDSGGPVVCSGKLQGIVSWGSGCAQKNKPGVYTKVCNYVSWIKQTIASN
Briefly: Serine protease selectivity, chromogenic substrate (Kass), trypsin. It is filed as biochemical, bovine. To be noted: substrate N-Benzoyl-Phe-Val-Arg-p-nitroanilide. The procedure:
as §1, §2, §3, §4

Another experiment concerns the target T3, Plasmin (Homo sapiens, UniProt P00747).
T3 construct: Human plasmin is purchased; purchased Boehringer Mannheim, Indianapolis, Ind
The experiment in a line: Serine protease selectivity, chromogenic substrate (Kass), plasmin. The class given is biochemical. To be noted: substrate H-D-Val-Leu-Lys-p-nitroanilide. The procedure: as §1, §2, §3
(§5) Human plasmin is purchased from Boehringer Mannheim, Indianapolis, Ind.; nt-PA is purchased as single chain activity reference from American Diagnostica, Greenwich, Conn.; modified-t-PA6 (mt-PA6) is prepared at Eli Lilly and Company by procedure known in the art (See, Burck, et al., J. Biol. Chem., 265, […] (1990). Plasmin chromogenic substrate H-D-Val-Leu-Lys-p-nitroanilide and tissue plasminogen activator (t-PA) substrate H-D-Ile-Pro-Arg-p-nitroanilide are purchased from Kabi Vitrum, Stockholm, Sweden.

A further experiment concerns the target T4, t-PA (Homo sapiens, UniProt P00750).
T4 construct: purchased American Diagnostica, Greenwich, Conn
Briefly: Serine protease selectivity, chromogenic substrate (Kass), t-PA. The class given is biochemical. To be noted: substrate H-D-Ile-Pro-Arg-p-nitroanilide. The procedure: as §1, §2, §3, §5

Experiment [1] has as its system Human plasma. The experiment in a line: Human plasma anticoagulation, thrombin time (TT). The class given is biochemical. To be noted: concentration required to double the thrombin time, linear extrapolation. The procedure: (§6) Dog plasma and rat plasma is obtained from conscious mixed-breed hounds (either sex, Hazelton-LRE, Kalamazoo, Mich., U.S.A.) or from anesthetized male Sprague-Dawley rats (Harlan Sprague-Dawley, Inc., Indianapolis, Ind., U.S.A.) by venipuncture into 3.8 percent citrate. Fibrinogen is prepared from in-date ACD human blood as the fraction I-2 according to previous procedures and specifications. Smith, Biochem. J., 185, 1-11 (1980); and Smith, et al., Biochemistry, 11, 2958-2967 (1972). Human fibrinogen is also purchased as 98 percent pure/plasmin free from American Diagnostica, Greenwich, Conn. Coagulation reagents ACTIN, Thromboplastin, and Human plasma are from Baxter Healthcare Corp., Dade Division, Miami, Fla. Bovine thrombin from Parke-Davis ([…], Mich.) is used for coagulation assays in plasma.
(§7) Coagulation assay procedures are as previously described. Smith, et al., Thrombosis Research, 50, 163-174 (1988). A CoAScreener coagulation instrument (American LABor, Inc.) is used for all coagulation assay measurements. The prothrombin time (PT) is measured by adding 0.05 mL saline and 0.05 mL Thromboplastin-C reagent to 0.05 mL test plasma. The activated partial thromboplastin time (APTT) is measured by incubation of 0.05 mL test plasma with 0.05 mL Actin reagent for 120 seconds followed by 0.05 mL CaCl2 (0.02M). The thrombin time (TT) is measured by adding 0.05 mL saline and 0.05 mL thrombin (10 NIH units/mL) to 0.05 mL test plasma. The compounds of formula I are added to human or animal plasma over a wide range of concentrations to determine prolongation effects on the APTT, PT, and TT assays. Linear extrapolations are performed to estimate the concentrations required to double the clotting time for each assay.

Experiment [2] has as its system Human plasma. The experiment in a line: Human plasma anticoagulation, activated partial thromboplastin time (APTT). To be noted: concentration required to double the APTT, linear extrapolation. It is filed as biochemical. The procedure:
as §6, §7

Experiment [3] deals with Human plasma. The experiment in a line: Human plasma anticoagulation, prothrombin time (PT). The class given is biochemical. To be noted: concentration required to double the PT, linear extrapolation. The procedure:
as §6, §7

T4 sequence (P00750 36-562): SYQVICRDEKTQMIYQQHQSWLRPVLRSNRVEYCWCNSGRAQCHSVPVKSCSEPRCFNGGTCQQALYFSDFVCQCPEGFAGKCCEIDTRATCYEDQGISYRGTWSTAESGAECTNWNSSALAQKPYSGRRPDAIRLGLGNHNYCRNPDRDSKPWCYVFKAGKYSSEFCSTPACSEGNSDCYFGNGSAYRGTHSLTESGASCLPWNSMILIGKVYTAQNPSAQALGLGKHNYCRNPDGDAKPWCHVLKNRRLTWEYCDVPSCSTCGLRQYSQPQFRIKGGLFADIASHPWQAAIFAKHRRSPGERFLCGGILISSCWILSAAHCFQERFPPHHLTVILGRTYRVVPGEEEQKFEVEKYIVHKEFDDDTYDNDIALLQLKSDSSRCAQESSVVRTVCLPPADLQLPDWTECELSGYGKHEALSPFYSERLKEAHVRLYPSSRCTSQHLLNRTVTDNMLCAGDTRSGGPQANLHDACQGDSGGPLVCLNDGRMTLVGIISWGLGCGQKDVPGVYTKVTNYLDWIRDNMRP
T3 sequence (P00747 581-810 limits assumed): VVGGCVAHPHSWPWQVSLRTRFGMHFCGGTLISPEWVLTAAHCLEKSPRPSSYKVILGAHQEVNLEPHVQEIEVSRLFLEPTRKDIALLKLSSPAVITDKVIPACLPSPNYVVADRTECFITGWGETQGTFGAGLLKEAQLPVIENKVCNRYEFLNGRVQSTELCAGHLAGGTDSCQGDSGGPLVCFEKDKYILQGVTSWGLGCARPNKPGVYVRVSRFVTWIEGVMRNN
T3 sequence (P00747 97-580 partner limits assumed): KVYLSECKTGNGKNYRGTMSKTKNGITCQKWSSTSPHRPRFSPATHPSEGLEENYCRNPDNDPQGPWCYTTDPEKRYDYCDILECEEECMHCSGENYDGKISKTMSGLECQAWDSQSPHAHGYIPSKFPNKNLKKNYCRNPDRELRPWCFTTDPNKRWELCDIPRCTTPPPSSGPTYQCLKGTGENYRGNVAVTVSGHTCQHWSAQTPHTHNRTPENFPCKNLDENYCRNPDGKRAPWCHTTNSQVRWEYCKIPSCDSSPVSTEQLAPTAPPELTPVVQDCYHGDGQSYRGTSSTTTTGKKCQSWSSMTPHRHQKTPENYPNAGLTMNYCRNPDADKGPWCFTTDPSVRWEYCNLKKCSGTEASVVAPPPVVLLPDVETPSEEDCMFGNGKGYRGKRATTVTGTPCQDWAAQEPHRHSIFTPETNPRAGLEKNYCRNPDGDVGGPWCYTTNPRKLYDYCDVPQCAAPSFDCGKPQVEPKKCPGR

For the molecule `CC(=O)Nc1ccc(O[C@H]2C[C@@H](C(=O)N[C@H](C=O)CCCNC(=N)N)N(C(=O)[C@H]3CCCCN3)C2)cc1.Cl.Cl` (relative stereo) [Example 10, D-hPro-Pro(4-cis-(4-AcNH-phenoxy))-ArgH.2 HCl], the “Enzyme Kass, Human Thrombin” value at Human Thrombin came out at 3.0 L/mol × 10^6. Moreover, at factor Xa, the “Enzyme Kass, Xa” value came out at 0.59 L/mol × 10^6. For the same molecule, the “Enzyme Kass, Trypsin” value on Trypsin is reported as 63 L/mol × 10^6. Further, on Plasmin, the “Enzyme Kass, Plasmin” value amounted to 3.4 L/mol × 10^6. Further, the “Enzyme Kass, t-PA” value on t-PA turned out to be 0.027 L/mol × 10^6. Moreover, in the experiment on Human plasma [1], the “2x Clotting time, TT” value is on record as 480 ng/mL. The “2x Clotting time, APTT” value in the experiment with Human plasma [2] is 2,200 ng/mL. In the experiment on Human plasma [3], the “2x Clotting time, PT” value is given as 10,000 ng/mL.

For the molecule `CC(=O)Nc1cccc(O[C@H]2C[C@@H](C(=O)N[C@H](C=O)CCCNC(=N)N)N(C(=O)[C@H]3CCCCN3)C2)c1.Cl.Cl` (relative stereo) [Example 12, D-hPro-Pro(4-cis-(3-AcNH-phenoxy))-ArgH.2 HCl], on Human Thrombin, the “Enzyme Kass, Human Thrombin” value came to 6.1 L/mol × 10^6. Besides, the “Enzyme Kass, Xa” value at factor Xa came out at 1.2 L/mol × 10^6. The “Enzyme Kass, Trypsin” value on Trypsin was 56 L/mol × 10^6. At Plasmin, the “Enzyme Kass, Plasmin” value stood at 1.1 L/mol × 10^6. The “Enzyme Kass, t-PA” value at t-PA is given as 0.015 L/mol × 10^6. The “2x Clotting time, TT” value in the experiment on Human plasma [1] is reported as 210 ng/mL. In the experiment with Human plasma [2], the “2x Clotting time, APTT” value is 1,300 ng/mL. Besides, in the experiment with Human plasma [3], the “2x Clotting time, PT” value is listed as 4,100 ng/mL.

Regarding `Cl.Cl.N=C(N)NCCC[C@@H](C=O)NC(=O)[C@@H]1C[C@H](Oc2cccc(N)c2)CN1C(=O)[C@H]1CCCCN1` (relative stereo) [Example 13, D-hPro-Pro(4-cis-(3-NH2-phenoxy))-ArgH.2 HCl], the “Enzyme Kass, Human Thrombin” value at Human Thrombin came out at 2.1 L/mol × 10^6. Moreover, the “Enzyme Kass, Xa” value on factor Xa was 0.58 L/mol × 10^6. Besides, the “Enzyme Kass, Trypsin” value on Trypsin is 22 L/mol × 10^6. At Plasmin, the “Enzyme Kass, Plasmin” value amounted to 0.65 L/mol × 10^6. Besides, the “Enzyme Kass, t-PA” value at t-PA was determined as 0.033 L/mol × 10^6. In addition, the “2x Clotting time, TT” value in the experiment on Human plasma [1] was 490 ng/mL. Further, in the experiment on Human plasma [2], the “2x Clotting time, APTT” value was 2,900 ng/mL. The “2x Clotting time, PT” value in the experiment on Human plasma [3] was 9,100 ng/mL.

With `CCS(=O)(=O)N[C@H](C(=O)N1C[C@@H](Oc2ccccc2)C[C@H]1C(=O)N[C@H](C=O)CCCNC(=N)N)c1ccccc1.Cl` (relative stereo) [Example 16, EtSO2 -L-Phg-Pro(4-cis-phenoxy)-ArgH.HCl], the “Enzyme Kass, Human Thrombin” value on Human Thrombin came out at 43 L/mol × 10^6. Further, on factor Xa, the “Enzyme Kass, Xa” value is listed as 6.8 L/mol × 10^6. Further, the “Enzyme Kass, Trypsin” value on Trypsin was found to be 180 L/mol × 10^6. Also, on Plasmin, the “Enzyme Kass, Plasmin” value worked out at 4.8 L/mol × 10^6. Besides, the “Enzyme Kass, t-PA” value on t-PA was determined as 0.26 L/mol × 10^6. Also, the “2x Clotting time, TT” value in the experiment with Human plasma [1] is listed as 120 ng/mL. For the same molecule, the “2x Clotting time, APTT” value in the experiment with Human plasma [2] is recorded as 2,400 ng/mL. In addition, the “2x Clotting time, PT” value with Human plasma [3] is 4,900 ng/mL.

On to `CCS(=O)(=O)N[C@@H](C(=O)N1C[C@@H](Oc2ccccc2)C[C@H]1C(=O)N[C@H](C=O)CCCNC(=N)N)c1ccccc1.Cl` (relative stereo) [Example 17, EtSO2 -D-Phg-Pro(4-cis-phenoxy)-ArgH.HCl], for which, on Human Thrombin, the “Enzyme Kass, Human Thrombin” value is reported as 2,200 L/mol × 10^6. For the same molecule, the “Enzyme Kass, Xa” value on factor Xa is on record as 32 L/mol × 10^6. For the same molecule, the “Enzyme Kass, Trypsin” value at Trypsin came out at 910 L/mol × 10^6. For the same molecule, at Plasmin, the “Enzyme Kass, Plasmin” value was 26 L/mol × 10^6. Moreover, the “Enzyme Kass, t-PA” value at t-PA is listed as 1.5 L/mol × 10^6. Also, the “2x Clotting time, TT” value with Human plasma [1] was 16 ng/mL. Besides, the “2x Clotting time, APTT” value in the experiment on Human plasma [2] is reported as 380 ng/mL. Also, in the experiment on Human plasma [3], the “2x Clotting time, PT” value is listed as 1,200 ng/mL.

The values are drawn from patent US5599793A, “Antithromobotic agents” (Eli Lilly and Company, priority 1995, dated 1997).
